pEC50: −log10 of the molar value.
Target: T1, human GPR40 (Homo sapiens, UniProt O14842)
T1 construct: expressed in transfected cells
Assay: Inositol Phosphate Turnover (IP1) Assay
Format: cell-based
Conditions: HEK cells stably expressing human GPR40; CisBio IP-One kit; 60 minutes at 37 degrees; read-out: Human IP1 EC50
In short: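 HEK cells stably expressing GPR40, plated 16 h, then exposed to compound in stimulation buffer for 60 min at 37 °C. IP1 accumulation read by HTRF IP-One detection after 60 min at RT.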

T1 sequence (O14842 whole entry): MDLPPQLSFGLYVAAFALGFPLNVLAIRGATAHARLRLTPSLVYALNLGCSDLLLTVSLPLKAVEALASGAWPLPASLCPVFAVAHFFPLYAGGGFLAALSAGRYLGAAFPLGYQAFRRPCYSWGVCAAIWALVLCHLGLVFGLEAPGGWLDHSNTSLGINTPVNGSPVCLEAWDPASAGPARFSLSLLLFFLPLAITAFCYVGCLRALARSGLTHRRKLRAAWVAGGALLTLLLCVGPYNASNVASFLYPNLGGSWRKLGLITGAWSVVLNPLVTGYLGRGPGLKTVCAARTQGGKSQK

| pEC50 | Compound |
| --- | --- |
| 6.97 | Cc1nc(C(F)(F)F)c(CN2CCC3(CCc4ccc([C@H](C5CC5)[C@H](C)C(=O)O)cc4O3)CC2)s1 [Example 53, (2S,3R)-3-cyclopropyl-2-methyl-3-(1′-((2-methyl-4-(trifluoromethyl)thiazol-5-yl)methyl)spiro[chroman-2,4′-piperidin]-7-yl)propanoic Acid] |
| 8.19 | CC(c1cc(C(F)(F)F)cc(C(F)(F)F)c1)N1CCC2(CCc3ccc([C@H](C4CC4)[C@H](C)C(=O)O)cc3O2)CC1 (stereo partly drawn) [Example 54, (2S,3R)-3-(1′-(1-(3,5-bis(trifluoromethyl)phenyl)ethyl)spiro[chroman-2,4′-piperidin]-7-yl)-3-cyclopropyl-2-methylpropanoic Acid] |
| 8.12 | COc1cc(N2CCC3(CCc4ccc([C@H](C5CC5)[C@H](C)C(=O)O)cc4O3)CC2)c(Cl)cn1 [Example 55, (2S,3R)-3-(1′-(5-chloro-2-methoxypyridin-4-yl)spiro[chroman-2,4′-piperidin]-7-yl)-3-cyclopropyl-2-methylpropanoic Acid] |
| 6.07 | C[C@H](C(=O)O)[C@H](c1ccc2c(c1)OC1(CC2)CCN(c2ccnc(C(F)(F)F)n2)CC1)C1CC1 [Example 56, sodium (2S3R)-3-cyclopropyl-2-methyl-3-(1′-(2-(trifluoromethyl)pyrimidin-4-yl)spiro[chroman-2,4′-piperidin]-7-yl)propanoate] |
| 8.48 | C[C@H](C(=O)O)[C@H](c1ccc2c(c1)OC1(CC2)CCN(c2cc(C(F)(F)F)ccc2C(F)(F)F)CC1)C1CC1 [Example 59, (2S,3R)-3-(1′-(2,5-bis(trifluoromethyl)phenyl)spiro[chroman-2,4′-piperidin]-7-yl)-3-cyclopropyl-2-methylpropanoic Acid] |
| 7.76 | C[C@H](C(=O)O)[C@H](c1ccc2c(c1)OC1(CC2)CCN(Cc2cc(C#N)ccc2C(F)(F)F)CC1)C1CC1 [Example 60, (2S,3R)-3-(1′-(5-cyano-2-(trifluoromethyl)benzyl)spiro[chroman-2,4′-piperidin]-7-yl)-3-cyclopropyl-2-methylpropanoic Acid] |
| 6.93 | C[C@H](C(=O)O)[C@H](c1ccc2c(c1)OC1(CC2)CCN(Cc2cc(Cl)cc3c2OC(C)(C)C3)CC1)C1CC1 [Example 61, sodium (2S3R)-3-(1′-((5-chloro-2,2-dimethyl-2,3-dihydrobenzofuran-7-yl)methyl)-spiro[chroman-2,4′-piperidin]-7-yl)-3-cyclopropyl-2-methylpropanoate] |
| 8.37 | C[C@H](C(=O)O)[C@H](c1ccc2c(c1)OC1(CC2)CCC(N(C)c2cc(C(F)(F)F)ccc2C(F)(F)F)CC1)C1CC1 (stereo partly drawn) [Example 66, (2S,3R)-3-(4′-((2,5-bis (trifluoromethyl)phenyl) (methyl)amino)spiro [chroman-2,1′-cyclohexan]-7-yl)-3-cyclopropyl-2-methylpropanoic acid] |
| 8.76 | C[C@H](C(=O)O)[C@H](c1ccc2c(c1)OC1(CC2)CCC(N(C)c2cc(C(F)(F)F)ccc2C(F)(F)F)CC1)C1CC1 (stereo partly drawn) [Example 70, (2S,3R)-3-(4′-((2,5-bis(trifluoromethyl)phenyl) (methyl)amino)spiro [chroman-2,1′-cyclohexan]-7-yl)-3-cyclopropyl-2-methylpropanoic acid] |
| 6.26 | C[C@H](C(=O)O)[C@H](c1ccc2c(c1)OC1(CC2)CCN(c2ccc3nc(C(F)(F)F)cn3n2)CC1)C1CC1 [Example 71, (2S,3R)-3-cyclopropyl-2-methyl-3-(1′-(2-(trifluoromethyl)imidazo[1,2-b]-pyridazin-6-yl)spiro[chroman-2,4′-piperidin]-7-yl)propanoic Acid] |
| 6.00 | C[C@H](C(=O)O)[C@H](c1ccc2c(c1)OC1(CC2)CCN(Cc2cn(C)nc2C(F)(F)F)CC1)C1CC1 [Example 72, (2S,3R)-3-cyclopropyl-2-methyl-3-(1′-((1-methyl-3-(trifluoromethyl)-1H-pyrazol-4-yl)methyl)spiro[chroman-2,4′-piperidin]-7-yl)propanoic Acid] |
| 7.93 | C[C@H](C(=O)O)[C@H](c1ccc2c(c1)OC1(CC2)CCN(Cc2cc(C3CC3)ccc2OC(F)(F)F)CC1)C1CC1 [Example 76, (2S,3R)-3-cyclopropyl-3-(1′-(5-cyclopropyl-2-(trifluoromethoxy)benzyl)spiro[chroman-2,4′-piperidin]-7-yl)-2-methylpropanoic Acid] |
| 7.63 | Cc1ccc(OC(F)(F)F)c(CN2CCC3(CCc4ccc([C@H](C5CC5)[C@H](C)C(=O)O)cc4O3)CC2)c1 [Example 77, (2S,3R)-3-cyclopropyl-2-methyl-3-(1′-(5-methyl-2-(trifluoromethoxy)benzyl)spiro[chroman-2,4′-piperidin]-7-yl)propanoic acid] |
| 7.55 | C[C@H](C(=O)O)[C@H](c1ccc2c(c1)OC1(CC2)[C@@H]2CC[C@H]1CN([C@H](C)c1cc(F)ccc1C(F)(F)F)C2)C1CC1 (stereo partly drawn) [Example 84, (2S,3R)-3-cyclopropyl-3-((1R,5S)-3-((R)-1-(5-fluoro-2-(trifluoro-methyl)phenyl)ethyl)-3-azaspiro[bicyclo[3.2.1]oc-tane-8,2′-chroman]-7′-yl)-2-methylpropanoic acid] |
| 7.33 | C[C@H](C(=O)O)[C@H](c1ccc2c(c1)OC1(CC2)[C@@H]2CC[C@H]1CN([C@@H](C)c1cc(C(F)(F)F)ccc1C(F)(F)F)C2)C1CC1 (stereo partly drawn) [Example 86, (2S,3R)-3-((1R,5S)-3-((S)-1-(2,5-bis(trifluoro-methyl)phenyl)ethyl)-3-azaspiro[bicyclo[3.2.1]oc-tane-8,2′-chroman]-7′-yl)-3-cyclopropyl-2-methylpropanic acid] |
| 7.88 | C[C@H](C(=O)O)[C@H](c1ccc2c(c1)OC1(CC2)CC(N(C)c2ncccc2C(F)(F)F)C1)C1CC1 (stereo partly drawn) [Example 89, (2S,3R)-3-cyclopropyl-2-methyl-3-(3′-(methyl(3-(trifluoromethyl)pyridin-2-yl)amino)spiro[chroman-2,1′-cyclobutan]-7-yl)propanoic Acid] |
| 8.14 | C[C@H](C(=O)O)[C@H](c1ccc2c(c1)OC1(CC2)CC(N(C)c2ncccc2C(F)(F)F)C1)C1CC1 (stereo partly drawn) [Example 90, (2S,3R)-3-cyclo-propyl-2-methyl-3-(3′-(methyl(3-(trifluoro-methyl)pyridin-2-yl)amino)spiro[chro-man-2,1′-cyclobutan]-7-yl)propanoic acid] |
| 8.06 | C[C@H](C(=O)O)[C@H](c1ccc2c(c1)OC1(CC2)CC(N[C@H](C)c2cc(C(F)(F)F)ccc2C(F)(F)F)C1)C1CC1 (stereo partly drawn) [Example 91, (2S,3R)-3-(3′-((1-(2,5-bis(trifluoromethyl)phenyl)ethyl)amino)spiro[chroman-2,1′-cyclobutan]-7-yl)-3-cyclopropyl-2-methylpropanoic Acid] |
| 8.24 | C[C@H](C(=O)O)[C@H](c1ccc2c(c1)OC1(CC2)CC(N[C@H](C)c2cc(C(F)(F)F)ccc2C(F)(F)F)C1)C1CC1 (stereo partly drawn) [Example 93, (2S,3R)-3-(3′-(((R)-1-(2,5-bis(trifluoro-methyl)phenyl)ethyl)a-mino)spiro[chroman-2,1′-cyclo-butan]-7-yl)-3-cyclopropyl-2-methylpropanic acid] |
| 8.79 | CC(c1cc(C(F)(F)F)ccc1C(F)(F)F)N(C)C1CC2(CCc3ccc([C@H](C4CC4)[C@H](C)C(=O)O)cc3O2)C1 (stereo partly drawn) [Example 99, (2S,3R)-3-(3′-((1-(2,5-bis(trifluoromethyl)phenyl)ethyl)(methyl)amino)spiro[chroman-2,1′-cyclobutan]-7-yl)-3-cyclopropyl-2-methylpropanoic Acid] |
| 8.38 | C[C@H](C(=O)O)[C@H](c1ccc2c(c1)OC1(CC2)CC(N(C)[C@@H](C)c2cc(C(F)(F)F)ccc2C(F)(F)F)C1)C1CC1 (stereo partly drawn) [Example 100, (2S,3R)-3-(3′-(((S)-1-(2,5-bis(trifluoro-methyl)phenyl)ethyl)(meth-yl)amino)spiro[chro-man-2,1′-cyclobutan]-7-yl)-3-cyclopropyl-2-methylpropanic acid] |
| 7.77 | C[C@H](C(=O)O)[C@H](c1ccc2c(c1)OC1(CC2)CC(N(C)[C@H](C)c2cc(C(F)(F)F)ccc2C(F)(F)F)C1)C1CC1 (stereo partly shown) [Example 101] |
| 8.60 | CCC(c1cc(C(F)(F)F)cc(Cl)c1F)N1CCC2(CCc3ccc([C@H](C4CC4)[C@H](C)C(=O)O)cc3O2)CC1 (stereo partly drawn) [Example 109, (2S,3R)-3-(1′-(1-(3-chloro-2-fluoro-5-(tri-fluromethyl)phenyl)propyl)spiro[chroman-2,4′-piperidin]-7-yl)-3-cyclopropyl-2-methylpropanoic acid] |
| 9.09 | CCC(c1cc(Cl)ccc1OC(F)(F)F)N1CCC2(CCc3ccc([C@H](C4CC4)[C@H](C)C(=O)O)cc3O2)CC1 (stereo partly drawn) [Example 110, (2S,3R)-3-(1′-(1-(5-chloro-2-(trifluoromethoxy)phenyl)propyl)spiro[chroman-2,4′-piperidin]-7-yl)-3-cyclopropyl-2-methylpropanoic Acid] |
| 7.70 | CC(c1cc(C2CC2)ccc1OC(F)(F)F)N1CCC2(CCc3ccc([C@H](C4CC4)[C@H](C)C(=O)O)cc3O2)CC1 (stereo partly drawn) [Example 111, (2S,3R)-3-cyclopropyl-3-(1′-(1-(5-cyclopropyl-2-(trifluoromethoxy)phenyl)ethyl)spiro[chroman-2,4′-piperidin]-7-yl)-2-methylpropanoic Acid] |
| 7.82 | Cc1cscc1-c1ccc(OC(F)(F)F)c(C(C)N2CCC3(CCc4ccc([C@H](C5CC5)[C@H](C)C(=O)O)cc4O3)CC2)c1 (stereo partly shown) [Example 119] |
| 6.96 | Cc1noc(C)c1-c1ccc(OC(F)(F)F)c(C(C)N2CCC3(CCc4ccc([C@H](C5CC5)[C@H](C)C(=O)O)cc4O3)CC2)c1 (stereo partly drawn) [Example 121, (2S,3R)-3-cyclopropyl-3-(1′-(1-(5-(3,5-dimethylisoxazol-4-yl)-2-(trifluoro-methoxy)phenyl)ethyl)spiro [chroman-2,4′-piperidin]-7-yl)-2-methyl-propanoic acid] |
| 7.52 | CC(c1cc(C#N)ccc1OC(F)(F)F)N1CCC2(CCc3ccc([C@H](C4CC4)[C@H](C)C(=O)O)cc3O2)CC1 (stereo partly drawn) [Example 123, (2S,3R)-3-(1′-(1-(5-cyano-2-(trifluoromethoxy)phenyl)ethyl)spiro[chroman-2,4′-piperidin]-7-yl)-3-cyclopropyl-2-methylpropanoic Acid] |

Reference: patent publication US10968232B2 (Merck Sharp & Dohme Corp., priority 2016, dated 2021)
